Assay results published in ChEMBL document CHEMBL5137033, “Development of sulfonamide-based NLRP3 inhibitors: Further modifications and optimization through structure-activity relationship studies” (Eur J Med Chem, 2022).

Experiments:
[1] = Inhibition of IL-1beta production in C57BL/6 mouse assessed as reduction in IL-1beta level in serum at 10 mg/kg, ip pretreated with compound followed by LPS addition and measured after 2.5 hrs by ELISA; type: functional
[2] = target: NACHT, LRR and PYD domains-containing protein 3 (Homo sapiens, UniProt Q96P20); assay: Binding affinity to human recombinant full length NLRP3 transfected in HEK293F cells assessed as dissociation constant incubated for 40 mins by microscale thermophoresis analysis
NACHT, LRR and PYD domains-containing protein 3 (Homo sapiens, UniProt Q96P20), sequence (Q96P20 whole entry, the tested form may be a part): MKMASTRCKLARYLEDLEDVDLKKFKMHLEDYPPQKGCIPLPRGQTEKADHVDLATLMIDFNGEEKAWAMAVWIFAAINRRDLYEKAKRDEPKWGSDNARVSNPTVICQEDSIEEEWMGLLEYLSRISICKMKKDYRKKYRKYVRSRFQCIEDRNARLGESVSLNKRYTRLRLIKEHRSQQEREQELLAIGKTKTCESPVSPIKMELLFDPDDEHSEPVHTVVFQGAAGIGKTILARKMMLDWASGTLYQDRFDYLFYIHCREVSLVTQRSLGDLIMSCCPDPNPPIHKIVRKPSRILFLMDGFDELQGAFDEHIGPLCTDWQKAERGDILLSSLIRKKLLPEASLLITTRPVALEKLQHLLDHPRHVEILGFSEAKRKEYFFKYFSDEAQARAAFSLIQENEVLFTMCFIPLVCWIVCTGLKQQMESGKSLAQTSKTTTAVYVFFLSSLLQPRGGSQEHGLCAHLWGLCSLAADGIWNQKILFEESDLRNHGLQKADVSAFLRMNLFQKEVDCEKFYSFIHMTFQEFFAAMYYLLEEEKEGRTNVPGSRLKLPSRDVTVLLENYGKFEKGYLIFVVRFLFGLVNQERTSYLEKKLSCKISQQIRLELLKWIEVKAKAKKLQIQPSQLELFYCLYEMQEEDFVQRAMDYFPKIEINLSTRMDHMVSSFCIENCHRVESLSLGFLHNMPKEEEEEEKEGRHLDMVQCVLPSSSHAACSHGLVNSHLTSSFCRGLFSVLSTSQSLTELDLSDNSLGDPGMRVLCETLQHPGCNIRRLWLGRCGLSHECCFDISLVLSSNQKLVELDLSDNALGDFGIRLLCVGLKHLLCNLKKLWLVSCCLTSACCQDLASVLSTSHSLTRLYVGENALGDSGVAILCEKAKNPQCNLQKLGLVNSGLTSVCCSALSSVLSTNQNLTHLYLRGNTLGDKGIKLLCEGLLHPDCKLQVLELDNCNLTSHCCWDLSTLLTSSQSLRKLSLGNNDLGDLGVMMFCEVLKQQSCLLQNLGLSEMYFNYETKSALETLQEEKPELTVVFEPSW

[3] = tested on: J774.A1; assay: (§1) Cytotoxicity against mouse J774.A1 cells assessed as cell viability at 10 uM incubated for 4 hrs by MTT assay relative to control; type: toxicity, cell-based; conditions: j774.a1, 4 h, 10 µM
[4] = target: T1, NACHT, LRR and PYD domains-containing protein 3 (Mus musculus, UniProt Q8R4B8); assay: Inhibition of NLRP3 inflammasome in LPS-primed mouse J774.A1 cells assessed as reduction in IL-1beta secretion preincubated for 30 mins followed by ATP addition and measured after 30 mins by ELISA; type: cell-based
T1 sequence (Q8R4B8 whole entry, the tested form may be a part): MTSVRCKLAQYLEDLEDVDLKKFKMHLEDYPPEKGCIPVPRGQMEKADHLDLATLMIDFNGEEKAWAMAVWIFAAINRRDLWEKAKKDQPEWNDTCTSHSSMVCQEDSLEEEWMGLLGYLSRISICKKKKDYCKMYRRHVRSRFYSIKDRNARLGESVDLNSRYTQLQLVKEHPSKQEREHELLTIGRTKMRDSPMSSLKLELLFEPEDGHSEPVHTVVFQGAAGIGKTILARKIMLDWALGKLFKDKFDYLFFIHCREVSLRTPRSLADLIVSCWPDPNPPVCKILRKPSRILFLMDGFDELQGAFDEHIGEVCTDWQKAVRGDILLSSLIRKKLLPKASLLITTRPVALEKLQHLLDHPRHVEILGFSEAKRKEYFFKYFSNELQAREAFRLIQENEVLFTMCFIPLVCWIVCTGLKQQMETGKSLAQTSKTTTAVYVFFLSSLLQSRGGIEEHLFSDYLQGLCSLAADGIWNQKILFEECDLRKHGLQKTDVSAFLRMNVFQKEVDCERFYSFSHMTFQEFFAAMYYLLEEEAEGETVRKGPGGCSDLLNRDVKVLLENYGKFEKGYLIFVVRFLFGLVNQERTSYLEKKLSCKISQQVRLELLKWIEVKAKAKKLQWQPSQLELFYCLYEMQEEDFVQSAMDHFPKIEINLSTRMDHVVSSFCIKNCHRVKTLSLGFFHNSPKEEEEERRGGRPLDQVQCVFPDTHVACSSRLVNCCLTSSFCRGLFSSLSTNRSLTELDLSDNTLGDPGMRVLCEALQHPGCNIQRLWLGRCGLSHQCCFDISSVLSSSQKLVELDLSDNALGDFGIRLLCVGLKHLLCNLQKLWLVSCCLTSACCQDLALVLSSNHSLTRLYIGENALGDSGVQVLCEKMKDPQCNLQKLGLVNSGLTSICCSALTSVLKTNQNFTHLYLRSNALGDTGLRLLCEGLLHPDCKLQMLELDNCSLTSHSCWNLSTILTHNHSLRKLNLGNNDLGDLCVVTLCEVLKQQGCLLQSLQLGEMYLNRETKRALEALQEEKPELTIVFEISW

[5] = target: T2, Interferon-inducible protein AIM2 (Mus musculus, UniProt Q91VJ1); assay: Inhibition of AIM2 inflammasome in LPS-primed mouse J774.A1 cells assessed as reduction in IL-1beta secretion preincubated for 1 hr followed by poly(dA:dT) addition and measured after 4 hrs by ELISA; type: cell-based
T2 sequence (Q91VJ1 whole entry): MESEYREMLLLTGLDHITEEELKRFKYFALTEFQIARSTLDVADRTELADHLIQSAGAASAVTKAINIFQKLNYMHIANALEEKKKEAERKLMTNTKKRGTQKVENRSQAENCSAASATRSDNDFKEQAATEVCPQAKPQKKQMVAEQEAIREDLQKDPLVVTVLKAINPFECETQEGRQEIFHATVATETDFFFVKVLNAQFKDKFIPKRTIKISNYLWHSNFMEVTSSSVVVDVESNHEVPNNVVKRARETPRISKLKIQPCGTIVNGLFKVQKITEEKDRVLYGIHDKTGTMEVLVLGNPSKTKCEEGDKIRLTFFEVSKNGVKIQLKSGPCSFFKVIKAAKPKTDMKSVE

[6] = target: T3, Interferon-inducible protein AIM2 (Mus musculus) (UniProt Q91VJ1); assay: Inhibition of AIM2 inflammasome in LPS-primed mouse J774.A1 cells assessed as IL-1beta secretion at 10 uM preincubated for 1 hr followed by poly(dA:dT) addition and measured after 4 hrs by ELISA relative to control; type: cell-based; parameters: scale not given: the % may be the effect or the level left; conditions: time 5.0 hrs
T3 sequence (whole entry): T2 sequence (Q91VJ1 whole entry)

[7] = tested on: HEK293; assay: (§2) Cytotoxicity against HEK293 cells assessed as cell viability at 10 uM incubated for 4 hrs by MTT assay relative to control; type: toxicity, cell-based; conditions: human, hek293, 4 h, 10 µM
[8] = target: NLR family CARD domain-containing protein 4 (Mus musculus, UniProt Q3UP24); assay: Inhibition of NLRC4 inflammasome in LPS-primed mouse J774.A1 cells assessed as reduction in IL-1beta secretion preincubated for 1 hr followed by flagellin addition and measured after 6 hrs by ELISA; type: cell-based
NLR family CARD domain-containing protein 4, sequence (Q3UP24 whole entry, the tested form may be a part): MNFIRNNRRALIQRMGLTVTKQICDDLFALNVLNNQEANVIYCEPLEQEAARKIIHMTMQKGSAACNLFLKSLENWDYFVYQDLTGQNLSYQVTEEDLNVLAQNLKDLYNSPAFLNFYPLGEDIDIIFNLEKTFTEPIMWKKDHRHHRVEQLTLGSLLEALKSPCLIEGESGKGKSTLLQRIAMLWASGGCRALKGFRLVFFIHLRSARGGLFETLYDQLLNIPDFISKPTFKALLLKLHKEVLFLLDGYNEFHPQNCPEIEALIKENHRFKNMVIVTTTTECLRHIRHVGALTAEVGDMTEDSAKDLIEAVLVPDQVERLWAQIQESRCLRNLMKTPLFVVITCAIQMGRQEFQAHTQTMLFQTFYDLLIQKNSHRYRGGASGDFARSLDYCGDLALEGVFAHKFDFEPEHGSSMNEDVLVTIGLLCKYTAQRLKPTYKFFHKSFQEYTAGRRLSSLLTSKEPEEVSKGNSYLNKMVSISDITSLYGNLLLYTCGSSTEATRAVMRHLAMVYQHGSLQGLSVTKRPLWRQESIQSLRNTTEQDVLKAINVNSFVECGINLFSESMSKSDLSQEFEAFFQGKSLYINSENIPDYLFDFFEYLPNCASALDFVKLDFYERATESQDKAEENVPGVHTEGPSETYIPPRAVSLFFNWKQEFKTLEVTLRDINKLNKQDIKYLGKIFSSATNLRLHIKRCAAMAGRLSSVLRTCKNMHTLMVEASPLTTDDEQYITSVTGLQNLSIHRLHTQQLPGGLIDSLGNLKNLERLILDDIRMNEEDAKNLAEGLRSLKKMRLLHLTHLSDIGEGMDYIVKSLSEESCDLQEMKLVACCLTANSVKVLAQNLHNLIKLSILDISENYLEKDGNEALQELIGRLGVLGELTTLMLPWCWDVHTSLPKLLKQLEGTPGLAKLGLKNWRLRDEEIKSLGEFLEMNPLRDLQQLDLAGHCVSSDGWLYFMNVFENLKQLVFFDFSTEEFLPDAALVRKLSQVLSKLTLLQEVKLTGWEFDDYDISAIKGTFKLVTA

[9] = target: NLR family CARD domain-containing protein 4 (Mus musculus) (UniProt Q3UP24); assay: Inhibition of NLRC4 inflammasome in LPS-primed mouse J774.A1 cells assessed as IL-1beta secretion at 10 uM preincubated for 1 hr followed by flagellin addition and measured after 6 hrs by ELISA relative to control; type: cell-based; parameters: scale not given: the % may be the effect or the level left; conditions: time 7.0 hrs
NLR family CARD domain-containing protein 4 (Mus musculus), sequence (Q3UP24 whole entry, the tested form may be a part): as above

[10] = target: T1, NACHT, LRR and PYD domains-containing protein 3; assay: Inhibition of NLRP3 inflammasome in LPS-primed mouse BMDM cells assessed as reduction in IL-1beta secretion preincubated for 30 mins followed by ATP addition and measured after 30 mins by ELISA; type: cell-based
[11] = as §1; type: toxicity, cell-based; conditions: J774.A1 cells, read-out: Activity
[12] = as §2; type: toxicity, cell-based; conditions: human, HEK293 cells, read-out: Activity
[13] = Drug uptake in iv dosed C57BL/6 mouse brain cortex measured after 60 mins by PET/CT imaging analysis; type: ADME, organism-based; conditions: in vivo, 1 h
[14] = Drug uptake in iv dosed C57BL/6 mouse liver measured after 3 min by PET/CT imaging analysis; type: ADME, organism-based; conditions: in vivo, 0.05 h
[15] = Drug uptake in iv dosed C57BL/6 mouse lung measured after 1 min by PET/CT imaging analysis; type: ADME, organism-based; conditions: in vivo
[16] = Drug uptake in iv dosed C57BL/6 mouse brain thalamus measured after 60 mins by PET/CT imaging analysis; type: ADME, organism-based; conditions: in vivo, 1 h
[17] = Drug uptake in iv dosed C57BL/6 mouse hippocampus measured after 60 mins by PET/CT imaging analysis; type: ADME, organism-based; conditions: in vivo, 1 h
[18] = Drug uptake in iv dosed C57BL/6 mouse Midbrain measured after 60 mins by PET/CT imaging analysis; type: ADME, organism-based; conditions: in vivo, 1 h
[19] = Drug uptake in iv dosed C57BL/6 mouse blood measured after 60 mins; conditions: in vivo, 1 h
[20] = Drug uptake in iv dosed C57BL/6 mouse brain cerebellum measured after 60 mins by PET/CT imaging analysis; type: ADME, organism-based; conditions: in vivo, 1 h
[21] = Drug uptake in iv dosed C57BL/6 mouse Brainstem measured after 60 mins by PET/CT imaging analysis; type: ADME, organism-based; conditions: in vivo, 1 h
[22] = Drug uptake in iv dosed C57BL/6 mouse blood measured after 1 min by PET/CT imaging analysis; type: ADME, organism-based; conditions: in vivo
[23] = Drug uptake in iv dosed C57BL/6 mouse brain measured after 60 mins by PET/CT imaging analysis; type: ADME, organism-based; conditions: in vivo, 1 h
[24] = Drug uptake in iv dosed C57BL/6 mouse kidney measured after 3 min by PET/CT imaging analysis; type: ADME, organism-based; conditions: in vivo, 0.05 h
[25] = Drug uptake in iv dosed C57BL/6 mouse brain striatum measured after 60 mins by PET/CT imaging analysis; type: ADME, organism-based; conditions: in vivo, 1 h
[26] = Drug uptake in iv dosed C57BL/6 mouse liver measured after 60 mins; conditions: in vivo, 1 h
[27] = Uptake in iv dosed C57BL/6 mouse kidney measured after 60 mins; conditions: in vivo, 1 h
[28] = Drug uptake in iv dosed C57BL/6 mouse lung measured after 60 mins; conditions: in vivo, 1 h

Compound | Activity [3] [%] | IC50 [4] [nM] | Activity [6] [%] | Activity [7] [%] | Activity [9] [%] | further results
C#CCNS(=O)(=O)c1ccc(CCN(Cc2cc(Cl)ccc2OCCC)C(=O)c2ccc(F)cc2)cc1 | 96.3 | 120 | 67.6 | 91.6 | 101 | inhibition in vivo at 10 mg/kg [1]: 75%; Kd [2]: 84 nM; IC50 [5]: > 10000 nM; IC50 [8]: > 10000 nM; IC50 [10]: 910 nM
C#CCS(=O)(=O)c1ccc(CCN(Cc2cc(Cl)ccc2OCCC)C(=O)c2csc3ccccc23)cc1 | 85.7 | 440 | 0 | 95.6 | 29.1 | 
C#CCNS(=O)(=O)c1ccc(CCN(Cc2cc(Cl)ccc2C(F)(F)F)C(=O)Cc2ccsc2)cc1 | 93.1 | 460 |  | 92.1 |  | 
C#CCN(C)S(=O)(=O)c1ccc(CCN(Cc2cc(Cl)ccc2OCCC)C(=O)Cc2ccsc2)cc1 | 105.8 | 320 | 108 | 94.5 | 80.8 | IC50 [5]: > 10000 nM; IC50 [8]: > 10000 nM
CC(C)(C)c1coc(S(=O)(=O)NC(=O)Nc2c3c(cc4c2CCC4)CCC3)c1 |  |  |  |  |  | viability at 4 h, 10 µM [11]: 94.9%; viability at 4 h, 10 µM [12]: 95.2%
C#CCNS(=O)(=O)c1ccc(CCN(Cc2cc(Cl)ccc2OCCC)C(=O)c2ccc([18F])cc2)cc1 |  |  |  |  |  | Drug uptake [13]: Active; Drug uptake [14]: 18.1 %ID/cc; Drug uptake [15]: 22.6 %ID/cc; Drug uptake [16]: Active; Drug uptake [17]: Active; Drug uptake [18]: Active; Drug uptake [19]: 4.2 %ID/cc; Drug uptake [20]: Active; Drug uptake [21]: Active; Drug uptake [22]: 30.1 %ID/cc; Drug uptake [23]: 1.8 %ID/cc; Drug uptake [24]: 20 %ID/cc; Drug uptake [25]: Active; Drug uptake [26]: 12 %ID/cc; Drug uptake [27]: 12.3 %ID/cc; Drug uptake [28]: 4.7 %ID/cc
C#CCNS(=O)(=O)c1ccc(CCN(Cc2ccccc2OCCC)C(=O)Cc2ccsc2)cc1 | 100.2 | 790 | 61.4 | 98.9 | 70.1 | 
CCCOc1ccc(Cl)cc1CN(CCc1ccc(S(=O)(=O)N2CCOCC2)cc1)C(=O)Cc1ccsc1 | 103.4 | 470 |  | 88.3 |  | 
C#CCNS(=O)(=O)c1ccc(CCN(Cc2cc(Cl)ccc2OCCC)C(=O)CCCc2ccsc2)cc1 | 97.9 | 1170 |  | 89.1 |  | 
C#CCNS(=O)(=O)c1ccc(CCN(Cc2cc(Cl)ccc2[N+](=O)[O-])C(=O)Cc2ccsc2)cc1 | 98.7 | 300 | 82.7 | 96.2 | 78.9 | 
C#CCNS(=O)(=O)c1ccc(CCN(Cc2cc(Cl)ccc2OCCC)C(=O)Cc2ccsc2)cc1 | 106 |  |  | 99 |  | 
CCCOc1ccc(Cl)cc1CN(CCc1ccc(S(=O)(=O)NCC(C)(C)C)cc1)C(=O)Cc1ccsc1 | 105.1 | 660 | 52.3 |  | 89.3 | 
C#CCNS(=O)(=O)c1ccc(CCN(Cc2cc(Cl)ccc2OCCC)C(=O)c2ccc([N+](=O)[O-])cc2)cc1 | 101.3 | 760 |  | 91.6 |  | 
C#CCNS(=O)(=O)c1ccc(CCN(Cc2cc(Cl)ccc2OCCC)C(=O)c2ccc(O)cc2)cc1 | 83.5 | 620 |  | 92.1 |  | 
C#CCNS(=O)(=O)c1ccc(CCN(Cc2cc(Cl)ccc2N)C(=O)Cc2ccsc2)cc1 | 93.5 | 1130 |  | 92.9 |  | 
C#CCNS(=O)(=O)c1ccc(CCN(Cc2cc(Cl)ccc2OCC#C)C(=O)Cc2ccsc2)cc1 | 95.5 | 210 |  | 94.8 |  | 
C#CCNS(=O)(=O)c1ccc(CCN(Cc2cc(Cl)ccc2OCCC)C(=O)c2csc3c2CCCC3)cc1 | 93.7 | 510 |  | 95.9 |  | 
C#CCNS(=O)(=O)c1ccc(CCN(Cc2cccc3c2OCO3)C(=O)Cc2ccsc2)cc1 | 100 | 340 | 68.8 | 100.7 | 66.9 | 
C#CCNS(=O)(=O)c1ccc(CCN(Cc2ccsc2)Cc2cc(Cl)ccc2OCCC)cc1 | 90.5 | 750 | 49.8 | 82 | 28.9 | 
C#CCNS(=O)(=O)c1ccc(CCN(Cc2cccc3c2OCO3)C(=O)Cc2ccc(F)cc2)cc1 | 96.8 | 190 | 59.1 | 96.2 | 102 | 
C#CCNS(=O)(=O)c1ccc(CCN(Cc2cc(Cl)ccc2OCCC)C(=O)c2ccc(B3OC(C)(C)C(C)(C)O3)cc2)cc1 | 88.1 | 2490 |  | 95.2 |  | 
C#CCNS(=O)(=O)c1ccc(CCN(Cc2cccc3c2OCO3)C(=O)c2ccc(F)cc2)cc1 | 99.5 | 930 |  | 93.4 |  | 
C#CCNS(=O)(=O)c1ccc(CCN(Cc2cc(Cl)ccc2OCCC)C(=O)Cc2ccc(F)cc2)cc1 | 102.2 | 280 |  | 90.6 |  | 
C#CCNS(=O)(=O)c1ccc(CCN(Cc2ccco2)C(=O)Cc2ccsc2)cc1 | 112.9 | 2490 | 89.4 | 96.4 | 76.2 | 
CCCOc1ccc(Cl)cc1CN(CCc1ccc(S(=O)(=O)N2CCC2)cc1)C(=O)Cc1ccc(F)cc1 | 106.1 | 1350 | 102 | 103.6 | 109 | 
C#CCNS(=O)(=O)c1ccc(CCN(Cc2cc(Cl)ccc2OCCC)C(=O)Cc2csc3ccccc23)cc1 | 105.4 | 210 | 96.7 | 99.8 | 85.6 | IC50 [5]: > 10000 nM; IC50 [8]: > 10000 nM
C#CCNS(=O)(=O)c1ccc(CCN(Cc2cc(Cl)ccc2OCCC)C(=O)c2csc3ccccc23)cc1 | 108.1 | 130 | 79.7 | 92.6 | 74.7 | 
CCCOc1ccc(Cl)cc1CN(CCc1ccc(S(=O)(=O)N2CCC2)cc1)C(=O)c1csc2ccccc12 | 107 | 7580 |  | 100.7 |  | 
C#CCNS(=O)(=O)c1ccc(CCN(Cc2cc(Cl)ccc2O)C(=O)Cc2ccsc2)cc1 | 92 | 680 | 47.3 | 97.6 | 8 | 
C#CCS(=O)(=O)c1ccc(CCN(Cc2cc(Cl)ccc2OCCC)C(=O)Cc2ccsc2)cc1 | 81.1 | 190 | 0 | 88.7 | 0 | 
